From patent publication US7354949B2, “Therapeutic agent for bladder irritative symptoms associated with benign prostatic hyperplasia” (Kyowa Hakko Kogyo Co., Ltd., priority 2001, dated 2008)

Tests used:
[1] = tested on: rats with partial urethral obstruction; experiment: Inhibitory activity on urinary frequency due to partial urethral obstruction (micturition test in metabolic cages); type: in vivo, rat
Protocol: (§1) The experiment was carried out according to the method of Saito, et al. [J. Urol., Vol. 150, pp. 1045-1051 (1993)].
(§2) Male SD rats of 8 to 9 weeks of age (supplied by Japan SLC) were used in the test. Five to seven animals of these rats were put in each metal cage and reared by allowing them to freely take commercially available chow and water, in an animal room at room temperature between 19 and 25° C. and humidity between 30 and 70% under illumination for 12 hours (from 7:00 a.m. to 7:00 p.m.) per day.
The rats were subjected to operation of partial urethral obstruction. Each rat was anesthetized by intraperitoneal administration of 50 mg/kg pentobarbital sodium (Dainippon Pharmaceutical Co., Ltd.) and placed in the supine position. The abdominal midline incision was made in a length of about 1 cm to expose the bladder, prostate and the urethra. After the bladder neck and base were peeled from the prostate, two surgical suture threads (No. 3, Natsume Seisakusho Co., Ltd.) were passed behind the urethral base. A polyethylene tube (PE-200, Nippon Becton Dickinson Co., Ltd.) was placed along the urethra, and the urethra was loosely double-ligated together with the tube. The ligation was made in such a manner that the urethra was not pressed with the polyethylene tube and the suture was not slack. Then, the polyethylene tube was pulled out and the urethra was partially obstructed. The incised part of abdomen was sutured with a surgical thread.
Five to seven days after the partial urethral obstruction operation, the rats with partial urethral obstruction and the sham-operated rats were put in metabolic cages (KN-649, Natsume Seisakusho Co., Ltd.). For acclimation, the rats were reared for one day with free drinking and feeding, and the micturition test was started the following day. The amount of urination in the rats was continuously measured as the weight using an electronic balance (HF-200, A & D Company Ltd.), and was recorded on a thermal array recorder (RTA-1200, Nihon Kohden Corp.) via a direct current amplifier (AD-601G, Nihon Kohden Corp.). The data were collected during the light period under illumination (9:00-18:00) and the dark period without illumination (19:00-4:00), and the number of micturitions and the micturition volume in each period were measured to calculate the urinary frequency (the number of micturitions per 9 hours), the voided volume per micturition and the total urine volume as the measurement parameters. The voided volume per micturition was calculated by dividing the total urine volume per 9 hours by the urinary frequency per 9 hours. On the next day, a test compound or a vehicle (0.5 w/v% aqueous methylcellulose 400 cP solution) was orally administered twice (between 8:00 and 9:00, and between 18:00 and 19:00). The number of micturitions and the urine volume were measured from 9:00 to 18:00 and from 19:00 to 4:00 in the same manner as on the previous day to obtain the measurement values. The changes in the values of each parameter induced by the administration of the compound were also calculated. In the sham-operated group, the urinary frequency, the voided volume per micturition and the total urine volume obtained on the first day of the micturition test were compared with those in the groups of partial urethral obstruction. The average±standard error of the urinary frequency, voided volume per micturition and the total urine volume was calculated for each group.

[2] = tested on: rats with partial urethral obstruction; experiment: Activity to increase the bladder capacity of rats with partial urethral obstruction (intravesical saline infusion); type: in vivo, rat; details: summary of Test Example 2
Protocol: as §1
as §2, with “to seven rats were” for “to seven animals of these rats were”, “room at a room temperature” for “room at room temperature”
The rats were subjected to operation of partial urethral obstruction. […]
Five to seven days after the operation of the partial urethral obstruction and the catheter implantation, the rats with partial urethral obstruction and the sham-operated rats were put in Bollman cages (KN-326-1, Natsume Seisakusho Co., Ltd.) under restraint. […] One end of the cock was connected to a pressure transducer (DX-360, Nihon Kohden Corp.), and the intravesical pressure signal was amplified via a strain pressure amplifier (AP-601G, Nihon Kohden Corp.), measured with a polygraph (RMP-6008, Nihon Kohden Corp.) and recorded on a thermal array recorder (RTA-1200, Nihon Kohden Corp.). […] The bladder capacity was calculated from the period of time until occurrence of micturition (infusion rate 6 ml/h×infusion time). […]

dd male mice = experiment: Acute toxicity test; type: in vivo; details: oral administration, mortality on the seventh day
Protocol: The test compound was administered orally or intraperitoneally to animals per group of dd male mice (body weight: 20±1 g). The minimum lethal dose (MLD) value was obtained by observing mortality on the seventh day after the administration.

[3] = Dark period (Active period), after oral administration
[4] = Dark period (Active period), before administration
[5] = Light period (Inactive period), after oral administration
[6] = Light period (Inactive period), before administration

In the case of `C[C@](O)(C(=O)Nc1cccc2c1C(=O)c1sccc1CS2(=O)=O)C(F)(F)F` [Compound 1, (S)-(+)-N-(5,5-dioxido-10-oxo-4,10-dihydrothieno[3,2-c][1]benzothiepin-9-y1)-3,3,3-trifluoro-2-hydroxy-2-methylpropanamide], the Total urine volume [1, 3] is reported as 4.83 ± 0.83 mL/9 hours, the Urinary frequency [1, 3] is reported as 6.7 ± 1.2 micturitions/9 hours and the Total urine volume [1, 4] is reported as 3.57 ± 0.57 mL/9 hours. The Urinary frequency [1, 4] was 10.0 ± 1.3 micturitions/9 hours, the Total urine volume [1, 5] was 4.76 ± 0.78 mL/9 hours and the Urinary frequency [1, 5] was 5.3 ± 0.4 micturitions/9 hours. For the same compound, the Total urine volume [1, 6] was 4.80 ± 0.31 mL/9 hours, the Urinary frequency [1, 6] was 8.7 ± 0.8 micturitions/9 hours and the “effect on urinary frequency (in words)” value ([1]; summary of Test Example 1) was “significantly decreased”. The “effect on voided volume per micturition (in words)” value ([1]; summary of Test Example 1) was “tended to increase”, the “effect on bladder capacity (in words)” value [2] was “tended to increase” and the “effect on micturition volume (in words)” value [2] was “significantly increased”. For the same compound, the “minimum lethal dose (MLD)” value (dd male mice) was > 1000 mg/kg.
